# Data from US7087622B2, “Pyridone compounds as inhibitors of bacterial type III protein secreation systems” (priority 2004, dated 2006).
# Experiments:
# Type in all cases: cell-based
# [1] = tested on: SPI1 type III protein secretion system (SipB secretion); experiment: Secondary assay: Type III-dependent protein secretion of the SipB polypeptide by S. enterica (immunoblot); conditions: Salmonella enterica, read-out: SipB IC50(uM)
# Experimental: Secondary assay: Type III-dependent protein secretion of the SipB polypeptide by S. enterica. The SipB protein of S. enterica is another effector of the SPI1 type III protein secretion system from S. enterica. In this cell-based procedure, the Type III-dependent secretion of SipB from the bacterial cytoplasm to the extracellular medium was measured through its reactivity with a cognate mouse monoclonal.
# Salmonella enterica cells growing either in the presence or in the absence of inhibitors are induced for the production of SipB. Following an established period of growth the cells are sedimented and the amount of SipB present in the supernatant is quantified with a scanning imager following application of immunoblot techniques. Detection may employ an anti-SipB mouse monoclonal antibody (e.g., obtained from Jorge Galan, SUNY at Stony Brook, N.Y.) followed by treatment with commercially available sheep anti-mouse polyclonal antibody conjugated with horseradish peroxidase. Thereafter the membrane is treated with a peroxidase chemiluminescent substrate and exposed to film for an appropriate exposure time. Inhibition may be measured relative to untreated controls.
# [2] = tested on: SPI1 type III protein secretion system (SopE-Bla secretion); experiment: Primary assay: Type III protein secretion of the chimeric SopE-Bla polypeptide by Salmonella enterica (nitrocefin hydrolysis); conditions: read-out: SopE IC50(uM)
# Source text: Primary assay: Type III protein secretion of the chimeric SopÉ-Bla polypeptide by Salmonella enterica. This procedure is a cell-based assay that measures the type III-dependent secretion by Salmonella enterica of a plasmid-encoded chimeric polypeptide whose synthesis can be regulated, and which is endowed with an enzymatic activity that can be monitored calorimetrically by hydrolysis of a substrate that is unable to penetrate into the bacterial cytoplasm within the time constraints of the reaction. Thus, the colorimetric reaction is not influenced by SopÉ-Bla polypeptide in the bacterial cytoplasm. Instead, it effectively measures the amount of polypeptide that has been secreted from the S. enterica cytoplasm to the extracellular medium via type III system protein secretion.
# The SopÉ-Bla recombinant polypeptide consists of two functionally distinct domains spliced together. The N-terminus domain is encoded by a polynucleotide region specifying the signal for type III secretion of the SopE polypeptide of S. enterica, an effector of the SPI1 type III protein secretion system. The C-terminus domain of SopÉ-Bla consists of a 263 amino acid peptide sequence that corresponds to the TEM-1 β-lactamase expressed by plasmid pBR322 but without its N-terminal signal sequence. The TEM-1 β-lactamase part of the SopÉ-Bla chimeric polypeptide is used as a reporter enzyme. It is capable of hydrolyzing nitrocefin resulting in a product whose accumulation can be monitored by colorimetric detection. The secretion of the SopÉ-Bla chimeric polypeptide from the cytoplasm to the extracellular medium is dependent on type III protein secretion.
# For this procedure, cells grown under conditions known to favor a functional SPI1 secretion system are induced for expression of the SopÉ-Bla protein and grown either in the presence or in the absence of putative inhibitors for determined time. Nitrocefin is then added to the various cultures and its hydrolysis are used for quantitation. An inhibitor of Type III protein secretion is generally a compound that reduces the signal of the enzymatic reaction by decreasing the amount of SopÉ-Bla secreted into the extracellular medium.
# [3] = tested on: type III protein secretion system of P. aeruginosa PA103 (ExoU secretion); experiment: Tertiary assay: Type III-dependent secretion of ExoU by P. aeruginosa PA103 (SDS-PAGE band quantitation); conditions: Pseudomonas aeruginosa, ExoU secreted into extracellular medium
# Source text: Tertiary assay: inhibition of Type III protein secretion of effectors from a Pseudomonas aeruginosa system. Type III protein secretion is used by P. aeruginosa to secrete several essential virulence determinants. One effector of the type III protein secretion system of P. aeruginosa PA103 is the virulence determinants ExoU.
# The amount of Type III-dependent secretion of ExoU by P. aeruginosa PA103 can be determined in a cell-based assay by quantification of the 73.9 kDa ExoU protein secreted into the extracellular medium. Such quantitation can be achieved by growing strain PA103 in a deferrated medium in the presence of nitrilotriacetic acid (an inducer of Type III protein secretion in P. aeruginosa) and either in the presence or absence of putative inhibitors. After a prolonged growth period, the cells are sedimented and the supernatants concentrated by ammonium sulfate precipitation. The proteins in the resuspended pellets are separated by electrophoresis on SDS-polyacrylamide gels. After staining gels with Colloidal Blue™, the 73.9 kDa ExoU band is quantitated by scanning through an imager. The effects of inhibitors on the intensity of the ExoU band may be measured relative to that of untreated controls.
SMILES,IC50 [1] [µM],IC50 [2] [µM],IC50 [3] [µM]
"CN(C)c1ccc(-c2cc(NC(=O)c3ccc(-c4ccccc4)cc3)c(=O)n(C(Cc3ccc(Cl)cc3)C(=O)O)c2)cc1 (stereo not drawn) [Compound 40, 2-[3-[(Biphenyl-4-carbonyl)amino]-5-(4-dimethylaminophenyl)-2-oxo-2H-pyridin-1-yl]-3-(4-chlorophenyl)propionic acid]",10.2,2.8,56.4
"COc1ccc(-c2cc(NC(=O)c3ccc(-c4ccccc4)cc3)c(=O)n(C(Cc3ccc(Cl)cc3)C(=O)O)c2)cc1OC (stereo not drawn) [Compound 41, 2-[3-[(Biphenyl-4-carbonyl)amino]-5-(3,4-dimethoxyphenyl)-2-oxo-2H-pyridin-1-yl]-3-(4-chlorophenyl)propionic acid]",15.9,3.2,67.4
"O=C(Nc1cc(-c2ccc3ccccc3c2)cn(C(Cc2ccc(Cl)cc2)C(=O)O)c1=O)c1ccc(-c2ccccc2)cc1 (stereo not drawn) [Compound 42, 2-{3-[(Biphenyl-4-carbonyl)amino]-5-naphthalen-2-yl-2-oxo-2H-pyridin-1-yl}-3-(4-chlorophenyl)propionic acid]",76.2,1.1,41.3
"O=C(Nc1cc(-c2ccc3[nH]ccc3c2)cn(C(Cc2ccc(Cl)cc2)C(=O)O)c1=O)c1ccc(-c2ccccc2)cc1 (stereo not drawn) [Compound 43, 2-[3-[(Biphenyl-4-carbonyl)amino]-5-(1H-indol-5-yl)-2-oxo-2H-pyridin-1-yl]-3-(4-chlorophenyl)propionic acid]",> 100,1.9,28
"O=C(Nc1cc(-c2ccsc2)cn(C(Cc2ccc(Cl)cc2)C(=O)O)c1=O)c1ccc(-c2ccccc2)cc1 (stereo not drawn) [Compound 44, 2-{3-[(Biphenyl-4-carbonyl)amino]-2-oxo-5-thiophen-3-yl-2H-pyridin-1-yl}-3-(4-chlorophenyl)propionic acid]",> 100,2.8,> 100
"O=C(Nc1cc(-c2ccoc2)cn(C(Cc2ccc(Cl)cc2)C(=O)O)c1=O)c1ccc(-c2ccccc2)cc1 (stereo not drawn) [Compound 45, 2-{3-[(Biphenyl-4-carbonyl)amino]-5-furan-3-yl-2-oxo-2H-pyridin-1-yl}-3-(4-chlorophenyl)propionic acid]",> 100,4,49.4
"O=C(Nc1cc(-c2ccc(-c3ccccc3)cc2)cn(C(Cc2ccc(Cl)cc2)C(=O)O)c1=O)c1ccc(-c2ccccc2)cc1 (stereo not drawn) [Compound 47, 2-{3-[(Biphenyl-4-carbonyl)amino]-5-biphenyl-4-yl-2-oxo-2H-pyridin-1-yl}-3-(4-chlorophenyl)propionic acid]",55,1.4,39.4
"O=C(Nc1cc(-c2ccc(Oc3ccccc3)cc2)cn(C(Cc2ccc(Cl)cc2)C(=O)O)c1=O)c1ccc(-c2ccccc2)cc1 (stereo not drawn) [Compound 48, 2-[3-[(Biphenyl-4-carbonyl)amino]-2-oxo-5-(4-phenoxyphenyl)-2H-pyridin-1-yl]-3-(4-chlorophenyl)propionic acid]",35,1.2,33.2
"O=C(Nc1cc(-c2ccccc2Oc2ccccc2)cn(C(Cc2ccc(Cl)cc2)C(=O)O)c1=O)c1ccc(-c2ccccc2)cc1 (stereo not drawn) [Compound 49, 2-[3-[(Biphenyl-4-carbonyl)amino]-2-oxo-5-(2-phenoxyphenyl)-2H-pyridin-1-yl]-3-(4-chlorophenyl)propionic acid]",48,< 0.8,46.3
"O=C(Nc1cc(-c2cccs2)cn(C(Cc2ccc(Cl)cc2)C(=O)O)c1=O)c1ccc(-c2ccccc2)cc1 (stereo not drawn) [Compound 50, 2-{3-[(Biphenyl-4-carbonyl)amino]-2-oxo-5-thiophen-2-yl-2H-pyridin-1-yl}-3-(4-chlorophenyl)propionic acid]",27,6.4,51.4
"O=C(Nc1cc(-c2ccc(F)cc2)cn(C(Cc2ccc(Cl)cc2)C(=O)O)c1=O)c1ccc(Oc2ccccc2)cc1 (stereo not drawn) [Compound 51, 3-(4-Chlorophenyl)-2-[5-(4-fluorophenyl)-2-oxo-3-(4-phenoxybenzoylamino)-2H-pyridin 1-yl]propionic acid]",> 100,4.9,> 100
"CN(C)c1ccc(-c2cc(NC(=O)c3ccc(Oc4ccccc4)cc3)c(=O)n(C(Cc3ccc(Cl)cc3)C(=O)O)c2)cc1 (stereo not drawn) [Compound 53, 3-(4-Chlorophenyl)-2-[5-(4-dimethylaminophenyl)-2-oxo-3-(4-phenoxy-benzoylamino)-2H-pyridin-1-yl]propionic acid]",> 100,3.6,49
